Experimental data: paper PMC7504466, “In-Vitro and In-Silico Evaluations of Heterocyclic-Containing Diarylpentanoids as Bcl-2 Inhibitors Against LoVo Colorectal Cancer Cells” (Molecules, 2020)

Assays:
[1] = tested on: SW620 cells; test: MTT cytotoxicity assay, SW620 cells; format: cell-based; conditions: Homo sapiens, SW-620, 72 h post-treatment, read-out: IC50 (µM) KRAS SW620
Experimental: (§1) The in-vitro cytotoxic activity of the synthesized compounds on seven human CRC cell lines including KRAS (T84, SW620, LoVo) and BRAF (HT29, NCI-H508, RKO and LS411N) mutated cells were determined by MTT assay as previously described. The IC50 values obtained are summarized in Table 2 in which 5-FU and normal human dermal fibroblasts (NHDF) were used as controls. Meanwhile, a heatmap (Figure 3) was also generated using GraphPad Prism v7.0 (GraphPad Software, La Jolla, CA, USA) to visualize the cytotoxic trends of synthesized compounds graphically.
(§2) A panel of KRAS (T84, SW620 and LoVo) and BRAF (HT29, NCI-H508, RKO and LS411N) mutated human CRC cell lines were grown in Dulbecco’s modified Eagle’s medium (DMEM) containing 10% fetal bovine serum (FBS) and 1% penicillin/streptomycin at 37 °C under 5% CO2 while NHDF cells were cultured in DMEM with 5% FBS under the same condition. The culture medium was replenished every two days until the cells reached 80–90% confluency for further usage. All cell lines (T84, ATCC®CCL-248™; SW620, ATCC®CCL-227™; LoVo, ATCC®CCL-229™; HT-29, ATCC®HTB-38; NCI-H508, ATCC®CCL-253™; RKO, ATCC®CRL-2577; LS411N, ATCC®CRL-2159; NHDF, ATCC® PCS-201-010™) were purchased from American Type culture Collections (ATCC, Manassas, VA, USA).
(§3) LoVo cells (1.5–5 × 10^3 cells/well) were seeded into a 96 well plate and incubated at 37 °C and 5% CO2 atmosphere for 24 h. On the following day, the cell media were replaced with 100 µL of test compounds at various concentration. The final concentration of DMSO in the well is 0.1%. After 72 h of incubation, culture medium was removed and 100 µL of MTT (thiazoyl blue tertrazolium bromide) solution (0.5 mg/mL in culture media) was added. The resultant plates were then further incubated at 37 °C for 4 h. Upon completion, the MTT solution was removed and the formazan salts formed were dissolved in 100 µL of DMSO. The absorbance was recorded with a microplate reader at 570 nm. The IC50 values of tested compounds were calculated from three independent experiments.

[2] = tested on: RKO cells; test: MTT cytotoxicity assay, RKO cells; format: cell-based; conditions: Homo sapiens, 72 h post-treatment, read-out: IC50 (µM) BRAF RKO
Experimental: as §1, §2, §3

[3] = tested on: LS411N cells; test: MTT cytotoxicity assay, LS411N cells; format: cell-based; conditions: Homo sapiens, LS-411N, 72 h post-treatment, read-out: IC50 (µM) BRAF LS411N
Experimental: as §1, §2, §3

[4] = tested on: NCI-H508 cells; test: MTT cytotoxicity assay, NCI-H508 cells; format: cell-based; conditions: Homo sapiens, 72 h post-treatment, read-out: IC50 (µM) BRAF NCI-H508
Experimental: as §1, §2, §3

[5] = tested on: T84 cells; test: MTT cytotoxicity assay, T84 cells; format: cell-based; conditions: Homo sapiens, 72 h post-treatment, read-out: IC50 (µM) KRAS T84
Experimental: as §1, §2, §3

[6] = tested on: HT29 cells; test: MTT cytotoxicity assay, HT29 cells; format: cell-based; conditions: Homo sapiens, HT-29, 72 h post-treatment, read-out: IC50 (µM) BRAF HT29
Experimental: as §1, §2, §3

[7] = tested on: LoVo cells; test: MTT cytotoxicity assay, LoVo cells; format: cell-based; conditions: Homo sapiens, 72 h post-treatment, read-out: IC50 (µM) KRAS LoVo
Experimental: as §1, §2, §3

[8] = tested on: normal human dermal fibroblasts (NHDF); test: MTT cytotoxicity assay, normal human dermal fibroblasts; format: cell-based; conditions: 72 h post-treatment
Experimental: as §1, §2, §3

[9] = tested on: human CRC cell lines (T84, SW620, LoVo, HT29, NCI-H508, RKO, LS411N); test: MTT cytotoxicity assay, panel of KRAS- and BRAF-mutated CRC cell lines; format: cell-based; conditions: several CRC cell lines, read-out: IC50 against several CRC cell lines
Experimental: as §1
A panel of KRAS (T84, SW620 and LoVo) and BRAF (HT29, NCI-H508, RKO and LS411N) mutated human CRC cell lines were grown in Dulbecco’s modified Eagle’s medium (DMEM) containing 10% fetal bovine serum (FBS) and 1% penicillin/streptomycin at 37 °C under 5% CO2 while NHDF cells were cultured in DMEM with 5% FBS under the same condition. The culture medium was replenished every two days until the cells reached 80–90% confluency for further usage. […]
LoVo cells (1.5–5 × 10^3 cells/well) were seeded into a 96 well plate and incubated at 37 °C and 5% CO2 atmosphere for 24 h. […] The absorbance was recorded with a microplate reader at 570 nm. The IC50 values of tested compounds were calculated from three independent experiments.

melting point [°C]	Compound	IC50 [1] [µM]	IC50 [2] [µM]	IC50 [3] [µM]	IC50 [4] [µM]	IC50 [5] [µM]	IC50 [6] [µM]	IC50 [7] [µM]	IC50 [8] [µM]	IC50 [9] [µM]
	COc1ccccc1C=C1CCCC(=Cc2ccccc2OC)C1=O [Compound 2a, 2,6-Bis(2-methoxybenzylidene)cyclohexanone]	> 10	> 10	> 10	> 10	> 10	> 10	> 10	> 20	
	O=C1C(=Cc2ccc(F)c(F)c2)CSCC1=Cc1ccc(F)c(F)c1 [Compound 2f, 3,5-Bis(3,4-difluorobenzylidene)tetrahydro-4H-thiopyran-4-one]	2.9	2.4	5.9	6.2	> 10	> 10	5.1	2	2.4 to 6.2
	O=c1[nH]cc(F)c(=O)[nH]1 [Compound 5-FU, 5-fluorouracil, reference compound]	> 10	2.9	4.6	8.6	> 10	> 10	3.3	> 20	
90 to 91	O=C1C(=Cc2ccc(F)c(F)c2)CCCC1=Cc1ccc(F)c(F)c1 [Compound 2c, 2,6-Bis(3,4-difluorobenzylidene)cyclohexanone]	3.2	2.6	3.7	3.3	3.3	5.4	3.3	12.9	
	O=C1C(=Cc2ccccc2Br)CCCC1=Cc1ccccc1Br [Compound 2b, 2,6-Bis(2-bromobenzylidene)cyclohexanone]	8.9	> 10	> 10	7.8	> 10	> 10	> 10	> 20	
120 to 121	COc1ccccc1C=C1CSCC(=Cc2ccccc2OC)C1=O [Compound 2d, 3,5-Bis(2-methoxybenzylidene)tetrahydro-4H-thiopyran-4-one]	> 10	7.1	5.8	5.3	> 10	> 10	6.9	9.7	
